Data from patent publication US8993574B2, “Pyrrole antifungal agents” (F2G Ltd, priority 2008, dated 2015).
≈ marks a conversion by molar mass, not a printed value.

What was measured:
Type in all cases: cell-based
Aspergillus terreus AT4 [1] = assay: MIC, YAG medium; details: 24 h at 35° C, MIC banded into grades; for MIC: Aspergillus terreus, read-out: MIC grade, A. terreus
Summary of the method: (§1)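 Broth microdilution in YAG medium tests compound over 50-0.05 mg/L against spores at 1−2×10^4 cfu/mL. After 24 h incubation at 35° C, optical density at 485 nm gives growth, and the MIC is the lowest concentration reducing it by more than 70% relative to untreated control.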

Aspergillus flavus [2] = assay: MIC, YAG medium; details: 24 h at 35° C, MIC banded into grades; for MIC: Aspergillus flavus, 24 h, read-out: MIC grade, A. flavus
Summary of the method: as §1

[3] = tested on: Aspergillus fumigatus AF210; assay: MIC, YAG medium; details: 24 h at 35° C, MIC banded into grades; for MIC: Aspergillus fumigatus, read-out: MIC grade, A. fumigatus 210
Summary of the method: as §1

Aspergillus terreus AT49 [4] = assay: MIC, YAG medium; details: 24 h at 35° C, MIC banded into grades; for MIC: Aspergillus terreus, read-out: MIC grade, A. terreus 49
Summary of the method: as §1

[5] = tested on: Aspergillus fumigatus AF293; assay: MIC, YAG medium; details: 24 h at 35° C, MIC banded into grades; for MIC: Aspergillus fumigatus, read-out: MIC grade, A. fumigatus
Summary of the method: as §1

Aspergillus niger [6] = assay: MIC, YAG medium; details: 24 h at 35° C, MIC banded into grades; for MIC: Aspergillus niger, read-out: MIC grade, A. niger
Summary of the method: as §1

Aspergillus terreus AT4 [7] = assay: MIC, RPMI medium; details: for MIC grade, A. terreus: MIC banded into grades; for MIC: Aspergillus terreus, AT4, MIC banded into grades, read-out: MIC grade, A. terreus
Summary of the method: (§2)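 Broth microdilution in RPMI with 2% glucose, 0.135 M MOPS pH 7.0; compounds as doubling dilutions, 50-0.05 mg/L, inoculum 1−2×10^4 cfu/mL. Incubated 24-48 h at 35° C; growth by OD 485 nm. MIC is lowest concentration giving >80% growth inhibition versus drug-free control.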

Aspergillus flavus [8] = assay: MIC, RPMI medium; details: MIC banded into grades; for MIC: Aspergillus flavus, read-out: MIC grade, A. flavus
Summary of the method: as §2

[9] = tested on: Aspergillus fumigatus AF210; assay: MIC, RPMI medium; details: for MIC grade, A. fumigatus 210: MIC banded into grades; for MIC: Aspergillus fumigatus, AF210, MIC banded into grades, read-out: MIC grade, A. fumigatus 210
Summary of the method: as §2

Candida krusei = assay: MIC, RPMI medium; details: 24-48 h at 35° C., >80% growth inhibition, banded into grades; for MIC: Pichia kudriavzevii
Summary of the method: as §2

Candida albicans = assay: MIC, RPMI medium; details: 24-48 h at 35° C., >80% growth inhibition, banded into grades; for MIC: Candida albicans
Summary of the method: as §2

Aspergillus terreus AT49 [10] = assay: MIC, RPMI medium; details: for MIC grade, A. terreus 49: MIC banded into grades; for MIC: Aspergillus terreus, AT49, MIC banded into grades, read-out: MIC grade, A. terreus 49
Summary of the method: as §2

Candida glabrata = assay: MIC, RPMI medium; details: 24-48 h at 35° C., >80% growth inhibition, banded into grades; for MIC: Nakaseomyces glabratus
Summary of the method: as §2

Candida tropicalis = assay: MIC, RPMI medium; details: 24-48 h at 35° C., >80% growth inhibition, banded into grades; for MIC: Candida tropicalis
Summary of the method: as §2

[11] = tested on: Aspergillus fumigatus AF293; assay: MIC, RPMI medium; details: for MIC grade, A. fumigatus: MIC banded into grades; for MIC: Aspergillus fumigatus, AF293, MIC banded into grades, read-out: MIC grade, A. fumigatus
Summary of the method: as §2

Candida parapsilosis = assay: MIC, RPMI medium; details: 24-48 h at 35° C., >80% growth inhibition, banded into grades; for MIC: Lodderomyces parapsilosis
Summary of the method: as §2

Aspergillus niger [12] = assay: MIC, RPMI medium; details: MIC banded into grades; for MIC: Aspergillus niger, read-out: MIC grade, A. niger
Summary of the method: as §2

SMILES	MIC grade, A. terreus (Aspergillus terreus AT4 [1])	MIC grade, A. flavus (Aspergillus flavus [2])	MIC grade, A. fumigatus 210 [3]	MIC grade, A. terreus 49 (Aspergillus terreus AT49 [4])	MIC grade, A. fumigatus [5]	MIC grade, A. niger (Aspergillus niger [6])	MIC grade, A. terreus (Aspergillus terreus AT4 [7])	MIC grade, A. flavus (Aspergillus flavus [8])	MIC grade, A. fumigatus 210 [9]	Candida MIC, C. krusei (Candida krusei)	Candida MIC, C. albicans (Candida albicans)	MIC grade, A. terreus 49 (Aspergillus terreus AT49 [10])	Candida MIC, C. glabrata (Candida glabrata)	Candida MIC, C. tropicalis (Candida tropicalis)	MIC grade, A. fumigatus [11]	Candida MIC, C. parapsilosis (Candida parapsilosis)	MIC grade, A. niger (Aspergillus niger [12])	MIC (Aspergillus terreus AT4 [1]) [µg/mL]	MIC (Aspergillus flavus [2]) [µg/mL]	MIC [3] [µg/mL]	further results
CCOC(=O)Cn1ccc(-c2ccccc2)c1C(=O)C(=O)Nc1ccc(N2CCN(c3cc(C)cc(C)n3)CC2)cc1 [Example 73, (2-{4-[4-(4,6-Dimethyl-pyridin-2-yl)-piperazin-1-yl]-phenylaminooxalyl}-3-phenyl-pyrrol-1-yl)-acetic acid ethyl ester]	1 (a grade of 1 represents an MIC of greater than 10 mg/L)	1 (a grade of 1 represents an MIC of greater than 10 mg/L)	3 (A grade of 3 represents an MIC of less than 1 mg/L)	2 (A grade of 2 represents an MIC of from 1 to 10 mg/L)	3 (A grade of 3 represents an MIC of less than 1 mg/L)	3 (A grade of 3 represents an MIC of less than 1 mg/L)	1 (a grade of 1 represents an MIC of greater than 10 mg/L)	1 (a grade of 1 represents an MIC of greater than 10 mg/L)	3 (A grade of 3 represents an MIC of less than 1 mg/L)	2 (A grade of 2 represents an MIC of from 1 to 10 mg/L)	2 (A grade of 2 represents an MIC of from 1 to 10 mg/L)	1 (a grade of 1 represents an MIC of greater than 10 mg/L)	3 (A grade of 3 represents an MIC of less than 1 mg/L)	3 (A grade of 3 represents an MIC of less than 1 mg/L)	3 (A grade of 3 represents an MIC of less than 1 mg/L)	2 (A grade of 2 represents an MIC of from 1 to 10 mg/L)	3 (A grade of 3 represents an MIC of less than 1 mg/L)	–	–	–	–
COC(=O)Cn1ccc(-c2ccccc2)c1C(=O)C(=O)Nc1ccc(N2CCN(c3cc(C)cc(C)n3)CC2)cc1 [Example 74, (2-{4-[4-(4,6-Dimethyl-pyridin-2-yl)-piperazin-1-yl]-phenylaminooxalyl}-3-phenylpyrrol-1-yl)-acetic acid methyl ester]	2 (A grade of 2 represents an MIC of from 1 to 10 mg/L)	1 (a grade of 1 represents an MIC of greater than 10 mg/L)	3 (A grade of 3 represents an MIC of less than 1 mg/L)	2 (A grade of 2 represents an MIC of from 1 to 10 mg/L)	3 (A grade of 3 represents an MIC of less than 1 mg/L)	3 (A grade of 3 represents an MIC of less than 1 mg/L)	2 (A grade of 2 represents an MIC of from 1 to 10 mg/L)	1 (a grade of 1 represents an MIC of greater than 10 mg/L)	3 (A grade of 3 represents an MIC of less than 1 mg/L)	2 (A grade of 2 represents an MIC of from 1 to 10 mg/L)	2 (A grade of 2 represents an MIC of from 1 to 10 mg/L)	2 (A grade of 2 represents an MIC of from 1 to 10 mg/L)	3 (A grade of 3 represents an MIC of less than 1 mg/L)	3 (A grade of 3 represents an MIC of less than 1 mg/L)	3 (A grade of 3 represents an MIC of less than 1 mg/L)	3 (A grade of 3 represents an MIC of less than 1 mg/L)	3 (A grade of 3 represents an MIC of less than 1 mg/L)	–	–	–	–
COCCn1c(C)cc(-c2ccccc2)c1C(=O)C(=O)Nc1ccc(N2CCCCC2)cc1F [Example 114, N-(2-Fluoro-4-piperidin-1-yl-phenyl)-2-[1-(2-methoxy-ethyl)-5-methyl-3-phenyl-1H-pyrrol-2-yl]-2-oxo-acetamide]	–	–	–	–	–	–	–	–	–	–	–	–	–	–	–	–	–	< 1	< 1	< 1	MIC (Aspergillus terreus AT49 [4]): < 1 µg/mL; MIC [5]: < 1 µg/mL; MIC (Aspergillus niger [6]): < 1 µg/mL; MIC (Aspergillus terreus AT4 [7]): 1 to 10 µg/mL (≈ 2.16 to 21.6 µM); MIC (Aspergillus flavus [8]): 1 to 10 µg/mL (≈ 2.16 to 21.6 µM); MIC [9]: 1 to 10 µg/mL (≈ 2.16 to 21.6 µM); MIC (Candida krusei): < 1 µg/mL; MIC (Candida albicans): < 1 µg/mL; MIC (Aspergillus terreus AT49 [10]): 1 to 10 µg/mL (≈ 2.16 to 21.6 µM); MIC (Candida glabrata): < 1 µg/mL; MIC (Candida tropicalis): < 1 µg/mL; MIC [11]: 1 to 10 µg/mL (≈ 2.16 to 21.6 µM); MIC (Candida parapsilosis): < 1 µg/mL; MIC (Aspergillus niger [12]): < 1 µg/mL
COCCn1ccc(-c2ccccc2Cl)c1C(=O)C(=O)Nc1ccc(N2CCN(c3cc(C)cc(C)n3)CC2)cc1 [Example 57, 2-[3-(2-Chloro-phenyl)-1-(2-methoxy-ethyl)-1H-pyrrol-2-yl]-N-{4-[4-(4,6-dimethyl-pyridin-2-yl)-piperazin-1-yl]-phenyl}-2-oxo-acetamide]	–	–	–	–	–	–	–	–	–	–	–	–	–	–	–	–	–	1 to 10 (≈ 1.75 to 17.5 µM)	1 to 10 (≈ 1.75 to 17.5 µM)	< 1	MIC (Aspergillus terreus AT49 [4]): < 1 µg/mL; MIC [5]: < 1 µg/mL; MIC (Aspergillus niger [6]): 1 to 10 µg/mL (≈ 1.75 to 17.5 µM); MIC (Aspergillus terreus AT4 [7]): 1 to 10 µg/mL (≈ 1.75 to 17.5 µM); MIC (Aspergillus flavus [8]): > 10 µg/mL; MIC [9]: 1 to 10 µg/mL (≈ 1.75 to 17.5 µM); MIC (Candida krusei): < 1 µg/mL; MIC (Candida albicans): 1 to 10 µg/mL (≈ 1.75 to 17.5 µM); MIC (Aspergillus terreus AT49 [10]): 1 to 10 µg/mL (≈ 1.75 to 17.5 µM); MIC (Candida glabrata): < 1 µg/mL; MIC (Candida tropicalis): 1 to 10 µg/mL (≈ 1.75 to 17.5 µM); MIC [11]: 1 to 10 µg/mL (≈ 1.75 to 17.5 µM); MIC (Candida parapsilosis): 1 to 10 µg/mL (≈ 1.75 to 17.5 µM); MIC (Aspergillus niger [12]): 1 to 10 µg/mL (≈ 1.75 to 17.5 µM)
COC(=O)Cn1ccc(C(C)C)c1C(=O)C(=O)Nc1ccc(N2CCN(c3cc(C)cc(C)n3)CC2)cc1 [Example 88]	2 (A grade of 2 represents an MIC of from 1 to 10 mg/L)	1 (a grade of 1 represents an MIC of greater than 10 mg/L)	3 (A grade of 3 represents an MIC of less than 1 mg/L)	1 (a grade of 1 represents an MIC of greater than 10 mg/L)	3 (A grade of 3 represents an MIC of less than 1 mg/L)	2 (A grade of 2 represents an MIC of from 1 to 10 mg/L)	1 (a grade of 1 represents an MIC of greater than 10 mg/L)	1 (a grade of 1 represents an MIC of greater than 10 mg/L)	3 (A grade of 3 represents an MIC of less than 1 mg/L)	3 (A grade of 3 represents an MIC of less than 1 mg/L)	2 (A grade of 2 represents an MIC of from 1 to 10 mg/L)	1 (a grade of 1 represents an MIC of greater than 10 mg/L)	3 (A grade of 3 represents an MIC of less than 1 mg/L)	3 (A grade of 3 represents an MIC of less than 1 mg/L)	3 (A grade of 3 represents an MIC of less than 1 mg/L)	3 (A grade of 3 represents an MIC of less than 1 mg/L)	2 (A grade of 2 represents an MIC of from 1 to 10 mg/L)	–	–	–	–
